We go through 37 compounds from patent publication US5081152A, “Azulene derivatives as thromboxane A2 and prostaglandin endoperoxide receptor antagonist” (Kotobuki Seiyaku Co., Ltd., priority 1989, dated 1992).

Each structure is given as a SMILES string. Counter-ions that a name gives are not always drawn.

For this experiment, the target named is T1, Thromboxane A2 receptor (Rattus norvegicus, UniProt P34978).
T1 sequence (P34978 1-341): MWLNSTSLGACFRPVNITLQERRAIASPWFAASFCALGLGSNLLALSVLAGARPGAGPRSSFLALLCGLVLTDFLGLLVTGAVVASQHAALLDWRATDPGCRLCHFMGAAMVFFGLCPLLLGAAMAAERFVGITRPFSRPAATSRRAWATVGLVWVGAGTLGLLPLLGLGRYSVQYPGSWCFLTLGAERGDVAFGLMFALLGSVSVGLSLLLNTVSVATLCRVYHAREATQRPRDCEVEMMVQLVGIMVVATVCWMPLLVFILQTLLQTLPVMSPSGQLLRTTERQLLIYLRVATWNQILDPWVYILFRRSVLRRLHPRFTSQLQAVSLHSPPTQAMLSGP
In words: Thromboxane A2 receptor antagonistic action (inhibitory action of U-46619-induced contractions of rat aortic strips). Conditions: isolated helical strips of rat aorta precontracted with 3×10^-8 M U-46619; read-out: IC50 (the concentrations which inhibited the contraction by 50%). The class given is cell-based.
Take `CC(C)c1cccc2c(CCCCNS(=O)(=O)c3ccccc3)cc(C(=O)O)c-2c1` [Compound 10, 7-Isopropyl-3-[4-(benzenesulfonylamino)butyl]-azulene-1-carboxylic acid]: the IC50 worked out at 3100 nM.
Then `CC(C)c1ccc2c(CCCCNS(=O)(=O)c3ccc(F)cc3)cc(C(=O)O)c-2cc1` [Compound 24, 6-Isopropyl-3-[4-(4-fluorobenzenesulfonylamino)butyl]-azulene-1-carboxylicacid], with 11 nM.
Regarding `CC(C)c1ccc2c(CCNS(=O)(=O)c3ccccc3)cc(C(=O)O)c-2cc1` [Compound 15, 6-Isopropyl-3-[2-(benzenesulfonylamino)ethyl]-azulene-1-carboxylic acid], the IC50 was found to be 60000 nM.
With `O=C(O)c1cc(CCNS(=O)(=O)c2ccccc2)c2cccccc1-2` [Compound 1, 3-[2-(Benzenesulfonylamino)ethyl]-azulene-1-carboxylic acid], the IC50 came out at 21000 nM.
With `CC(C)c1ccc2c(CCCCNS(=O)(=O)c3ccccc3)cc(C(=O)O)c-2cc1` [Compound 17, 6-Isopropyl-3-[4-(benzenesulfonylamino)butyl]-azulene-1-carboxylic acid], the IC50 stood at 78 nM.
In the case of `CC(C)c1ccc2c(CCCCNC(=O)c3ccccc3)cc(C(=O)O)c-2cc1` [Compound 41, 6-Isopropyl-3-[4-(benzoylamino)butyl]-azulene-1-carboxylic acid], the IC50 turned out to be 4400 nM.
The value for `CC(C)c1ccc2c(CCC[C@H](C)NS(=O)(=O)c3ccccc3)cc(C(=O)O)c-2cc1` [Compound 62, 6-isopropyl-3-[(4S)-(benzenesulfonylamino)pentyl]-azulene-1-carboxylicacid] was 50 nM; that for `O=C(O)c1cc(CCCCCCCCNS(=O)(=O)c2ccccc2)c2cccccc1-2` [Compound 7, 3-[8-(Benzenesulfonylamino)octyl]-azulene-1-carbaxylic acid] was 15000 nM.
Take `CC(C)c1ccc2c(CCCCNS(=O)(=O)c3ccc(Cl)cc3)cc(S(=O)(=O)O)c-2cc1` [Compound 48, 6-Isopropyl-3-[4-(P-chlorobenzenesulfonylamino)butyl]-azulene-1-sulfonic acid sodium salt]: the IC50 stood at 1.7 nM.
Consider `CC(C)c1ccc2c(CCC(C)(C)CNS(=O)(=O)c3ccccc3)cc(C(=O)O)c-2cc1` [Compound 65, 6-isopropyl-3-[3,3-dimethyl-4-(benzenesulfonylamino)butyl]-azulene-1-carboxylic acid], for which the IC50 stood at 50 nM.
Turning to `CC(C)c1ccc2c(C=CC(=O)O)cc(CCCCNS(=O)(=O)c3ccccc3)c-2cc1` [Compound 36, 3-[6-Isopropyl-3-[4-(benzenesulfonylamino)butyl]-azulene-1-yl]-2-propenoicacid], the IC50 amounted to 2400 nM.
On to `CC(C)c1ccc2c(CC[C@H](C)CNS(=O)(=O)c3ccccc3)cc(C(=O)O)c-2cc1` [Compound 59, 6-isopropyl-3-[(3S)-methyl-4-(benzenesulfonylamino)butyl]-azulene-1-carboxylic acid], for which the IC50 came to 16 nM.
Then `CC(C)c1ccc2c(CCCCNS(=O)(=O)c3ccc(Br)cc3)cc(S(=O)(=O)O)c-2cc1` [Compound 50, 6-Isopropyl-3-[4-(P-bromobenzenesulfonylamino)butyl]-azulene-1-sulfonic ac id sodium salt], with 1.7 nM; and `CC(C)c1ccc2c(C[C@H](C)CCNS(=O)(=O)c3ccccc3)cc(C(=O)O)c-2cc1` [Compound 56, 6-isopropyl-3-[(2S)-methyl-4-(benzenesulfonylamino)butyl]-azulene-1-carboxylic acid], with 160 nM; and `CC(C)c1ccc2c(CCCCNS(=O)(=O)c3ccc([N+](=O)[O-])cc3)cc(C(=O)O)c-2cc1` [Compound 32, 6-Isopropyl-3-[4-(4-nitrobenzenesulfonylamino)butyl]-azulene-1-carboxylic acid], with 13 nM.
`CC(C)c1ccc2c(CC(C)(C)CCNS(=O)(=O)c3ccccc3)cc(C(=O)O)c-2cc1` [Compound 64, 6-isopropyl-3-[2,2-dimethyl-4-(benzenesulfonylamino)butyl]-azulene-1-carboxylic acid]: the IC50 was found to be 690 nM.
The value for `CC(C)c1ccc2c(CCCCNS(=O)(=O)c3ccc(Cl)c(Cl)c3)cc(S(=O)(=O)O)c-2cc1` [Compound 49, 6-Isopropyl-3-[4-(3,4-dichlorobenzenesulfonylamino)butyl-azulene-1-sulfonic acid sodium salt] was 15 nM; that for `CC(C)c1ccc2c(CCC[C@@H](C)NS(=O)(=O)c3ccccc3)cc(C(=O)O)c-2cc1` [Compound 63, 6-isopropyl-3-[(4R)-(benzenesulfonylamino)pentyl]-azulene-1-carboxylicacid] was 420 nM; that for `CC(C)c1cccc2c(CCNS(=O)(=O)c3ccccc3)cc(C=CC(=O)O)c-2c1` [Compound 14, 3-[7-Isopropyl-3-(2-(benzenesulfonylamino)ethyl)-azulene-1-yl]-2-propenoicacid] was 21000 nM.
The value for `CC(C)c1ccc2c(CCCCNS(=O)(=O)c3ccc(C(F)(F)F)cc3)cc(C(=O)O)c-2cc1` [Compound 31, 6-Isopropyl-3-[4-(4-trifluoromethylbenzenesulfonylamino)butyl]-azulene-1-carboxylic acid] was 12 nM; that for `CC(C)c1ccc2c(CCCCNS(=O)(=O)c3ccc(F)cc3)cc(S(=O)(=O)O)c-2cc1` [Compound 47, 6-Isopropyl-3-[4-(P-fluorobenzenesulfonylamino)butyl]-azulene-1-sulfonic acid sodium salt] was 4.4 nM.
On to `CC(C)c1ccc2c(CCCCNS(=O)(=O)c3ccc(I)cc3)cc(S(=O)(=O)O)c-2cc1` [Compound 51, 6-Isopropyl-3-[4-(P-iodobenzenesulfonylamino)butyl]-azulene-1-sulfonicacid sodium salt], for which the IC50 is 1.6 nM.
The value for `CC(C)c1ccc2c(CCCCNS(=O)(=O)c3ccc(Cl)c(Cl)c3)cc(C(=O)O)c-2cc1` [Compound 26, 6-Isopropyl-3-[4-(3,4-dichlorobenzenesulfonylamino)butyl]-azulene-1-carboxylic acid] was 43 nM.
`CC(C)c1ccc2c(CCCCNS(=O)(=O)c3ccccc3)cc(S(=O)(=O)O)c-2cc1` [sodium salt]: the IC50 came out at 17 nM.
Take `CC(C)c1ccc2c(CCCCNS(=O)(=O)c3ccc(Br)cc3)cc(C(=O)O)c-2cc1` [Compound 27, 6-Isopropyl-3-[4-(4-bromobenzenesulfonylamino)butyl]-azulene-1-carboxylic acid]: the IC50 turned out to be 5.3 nM.
Then `CC(C)c1ccc2c(CCCCNS(=O)(=O)c3ccccc3)cc(CC(=O)O)c-2cc1` [Compound 33, 2-[6-Isopropyl-3-[4-(benzenesulfonylamino)butyl]-azulene-1-yl]-acetic acid], with 300 nM; and `Cc1ccc(S(=O)(=O)NCCCCc2cc(C(=O)O)c3ccc(C(C)C)ccc2-3)cc1` [Compound 22, 6-Isopropyl-3-[4-(4-methylbenzenesulfonylamino)butyl]-azulene-1-carboxylicacid], with 20 nM; and `O=C(O)c1cc(CCCCCCNS(=O)(=O)c2ccccc2)c2cccccc1-2` [Compound 5, 3-[6-(Benzenesulfonylamino)hexyl]-azulene-1-carboxylic acid], with 140 nM.
Turning to `CC(C)c1ccc2c(C(=O)O)cc([C@@H](C)CCCNS(=O)(=O)c3ccccc3)c-2cc1` [Compound 55, 6-isopropyl-3-[(1S)-methyl-4-(benzenesulfonylamino)butyl]-azulene-1-carboxylic acid], the IC50 was 44 nM.
As for `CC(C)c1cccc2c(CCCCCCNS(=O)(=O)c3ccccc3)cc(C(=O)O)c-2c1` [Compound 12, 7-Isopropyl-3-[6-(benzenesulfonylamino)hexyl]-azulene-1-carboxylic acid], the IC50 was 920 nM.
Turning to `CC(C)c1ccc2c(C(=O)O)cc([C@H](C)CCCNS(=O)(=O)c3ccccc3)c-2cc1` [Compound 54, 6-isopropyl-3-[(1R)-methyl-4-(benzenesulfonylamino)butyl]-azulene-1-carbolxylic acid], the IC50 stood at 210 nM.
The value for `CC(C)c1ccc2c(CCCCN(C)S(=O)(=O)c3ccccc3)cc(C(=O)O)c-2cc1` [Compound 37, 6-Isopropyl-3-[4-(N-methylbenzenesulfonylamino)butyl]-azulene-1-carboxylicacid] was 10000 nM; that for `CC(C)c1ccc2c(CCCCNS(=O)(=O)c3ccc(Cl)cc3)cc(C(=O)O)c-2cc1` [Compound 25, 6-Isopropyl-3-[4-(4-chlorobenzenesulfonylamino)butyl]-azulene-1-carboxylicacid] was 5.3 nM.
Then `O=C(O)c1cc(CCCCNS(=O)(=O)c2ccccc2)c2cccccc1-2` [Compound 3, 3-[4-(Benzenesulfonylamino)butyl]-azulene-1-carboxylic acid], with 570 nM.
The value for `COc1ccc(S(=O)(=O)NCCCCc2cc(C(=O)O)c3ccc(C(C)C)ccc2-3)cc1` [Compound 23, 6-Isopropyl-3-[4-(4-methoxybenzenesulfonylamino)butyl]-azulene-1-carboxylic acid] was 16 nM.
On to `CC(C)c1ccc2c(CC[C@@H](C)CNS(=O)(=O)c3ccccc3)cc(C(=O)O)c-2cc1` [Compound 58, 6-isopropyl-3-[(3R)-methyl-4-(benzenesulfonylamino)butyl]-azulene-1-carboxylic acid], for which the IC50 worked out at 35 nM.
Take `CC(C)c1ccc2c(C/C=C/CNS(=O)(=O)c3ccccc3)cc(C(=O)O)c-2cc1` [Compound 69, 6-isopropyl-3-[4-(benzenesulfonylamino)-trans-2-butenyl]-azulene-1-carboxylic acid]: the IC50 was 460 nM.
